# Tested on: MV-4-11 cells
# Assay: Gene expression microarray analysis (Affymetrix PrimeView) and GSEA
# Format: cell-based, human
# Set-up: RFU PODN (11730768_x_at) / Fold change /veh PODN (11730768_x_at) / RFU LINC00158 (11744669_a_at) / Fold change /veh LINC00158 (11744669_a_at) / RFU DUSP10 (11751237_a_at) / Fold change /veh DUSP10 (11751237_a_at) / RFU ID3 (11757404_x_at) / Fold change /veh ID3 (11757404_x_at) / RFU PLEKHG5 (11737974_s_at) / Fold change /veh PLEKHG5 (11737974_s_at) / RFU LRRC4B (11730491_at) / Fold change /veh LRRC4B (11730491_at) / RFU GIMAP4 (11747438_a_at) / Fold change /veh GIMAP4 (11747438_a_at) / RFU KRT8 (11758183_x_at) / Fold change /veh KRT8 (11758183_x_at) / RFU CNN1 (11734310_a_at) / Fold change /veh CNN1 (11734310_a_at) / RFU VPS37D (11726825_at) / Fold change /veh VPS37D (11726825_at) / RFU C10orf10 (11716522_x_at) / Fold change /veh C10orf10 (11716522_x_at) / RFU KIR2DL2 /// KIR2DL4 /// KIR2DL5A /// KIR2DL5B /// KIR2DS1 /// KIR2DS2 /// KIR2DS3 /// KIR2DS4 /// KIR3DL3 /// KIR3DL3 /// KIR3DS1 (11738374_at) / Fold change /veh KIR2DL2 /// KIR2DL4 /// KIR2DL5A /// KIR2DL5B /// KIR2DS1 /// KIR2DS2 /// KIR2DS3 /// KIR2DS4 /// KIR3DL3 /// KIR3DL3 /// KIR3DS1 (11738374_at) / RFU C1QL1 (11718748_at) / Fold change /veh C1QL1 (11718748_at) / RFU TMPRSS4 (11747572_a_at) / Fold change /veh TMPRSS4 (11747572_a_at) / RFU HAMP (11756126_x_at) / Fold change /veh HAMP (11756126_x_at) / RFU RNFT2 (11725882_a_at) / Fold change /veh RNFT2 (11725882_a_at) / RFU NR4A2 (11747474_a_at) / Fold change /veh NR4A2 (11747474_a_at) / RFU ABCC12 (11746883_a_at) / Fold change /veh ABCC12 (11746883_a_at) / RFU TMEM136 (11760407_x_at) / Fold change /veh TMEM136 (11760407_x_at) / RFU CLDN22 /// WWC2 (11732394_at) / Fold change /veh CLDN22 /// WWC2 (11732394_at) / RFU HLA-DPB1 (11760878_x_at) / Fold change /veh HLA-DPB1 (11760878_x_at) / RFU SPINT1 (11716480_a_at) / Fold change /veh SPINT1 (11716480_a_at) / RFU GAP43 (11754022_s_at) / Fold change /veh GAP43 (11754022_s_at) / RFU A4GNT (11735810_at) / Fold change /veh A4GNT (11735810_at) / RFU PRB3 (11715151_x_at) / Fold change /veh PRB3 (11715151_x_at) / RFU TUBB4B (11761932_at) / Fold change /veh TUBB4B (11761932_at) / RFU CAPN14 (11732068_a_at) / Fold change /veh CAPN14 (11732068_a_at) / RFU TMCC2 (11721928_a_at) / Fold change /veh TMCC2 (11721928_a_at) / RFU IRGQ (11745062_a_at) / Fold change /veh IRGQ (11745062_a_at) / RFU FAM174B (11720279_a_at) / Fold change /veh FAM174B (11720279_a_at) / RFU TMPRSS4 (11748680_a_at) / Fold change /veh TMPRSS4 (11748680_a_at) / RFU FAM212B (11763350_a_at) / Fold change /veh FAM212B (11763350_a_at) / RFU PLEKHG5 (11743358_a_at) / Fold change /veh PLEKHG5 (11743358_a_at) / RFU ZSCAN30 (11745921_a_at) / Fold change /veh ZSCAN30 (11745921_a_at) / RFU CMKLR1 (11741424_a_at) / Fold change /veh CMKLR1 (11741424_a_at) / RFU LOC101060620 /// MAPK8IP1 (11723275_at) / Fold change /veh LOC101060620 /// MAPK8IP1 (11723275_at) / RFU SPTSSB (11747773_x_at) / Fold change /veh SPTSSB (11747773_x_at) / RFU PRSS12 (11739890_at) / Fold change /veh PRSS12 (11739890_at) / RFU BIN1 (11741810_x_at) / Fold change /veh BIN1 (11741810_x_at) / RFU WNT11 (11732464_a_at) / Fold change /veh WNT11 (11732464_a_at) / RFU C10orf10 (11716521_a_at) / Fold change /veh C10orf10 (11716521_a_at) / RFU C5orf56 (11738089_at) / Fold change /veh C5orf56 (11738089_at) / RFU CYB561 (11721691_x_at) / Fold change /veh CYB561 (11721691_x_at) / RFU ANKRD19P (11752326_a_at) / Fold change /veh ANKRD19P (11752326_a_at) / RFU OR2T12 /// OR2T33 /// OR2T8 (11738714_s_at) / Fold change /veh OR2T12 /// OR2T33 /// OR2T8 (11738714_s_at) / RFU VCAN (11748164_a_at) / Fold change /veh VCAN (11748164_a_at) / RFU JSRP1 (11732532_at) / Fold change /veh JSRP1 (11732532_at) / RFU KRTAP10-11 (11738290_x_at) / Fold change /veh KRTAP10-11 (11738290_x_at) / RFU MYO3A (11730013_a_at) / Fold change /veh MYO3A (11730013_a_at) / RFU EBF3 (11725865_a_at) / Fold change /veh EBF3 (11725865_a_at) / RFU CAMK2N1 (11719241_x_at) / Fold change /veh CAMK2N1 (11719241_x_at) / RFU C5orf56 (11738088_a_at) / Fold change /veh C5orf56 (11738088_a_at) / RFU OLFML3 (11715873_a_at) / Fold change /veh OLFML3 (11715873_a_at) / RFU LOC100653217 /// NTM (11731650_a_at) / Fold change /veh LOC100653217 /// NTM (11731650_a_at) / RFU MAPK11 (11762145_a_at) / Fold change /veh MAPK11 (11762145_a_at) / RFU FIZ1 (11724087_x_at) / Fold change /veh FIZ1 (11724087_x_at) / RFU OASL (11726364_x_at) / Fold change /veh OASL (11726364_x_at) / RFU SOX15 (11748057_x_at) / Fold change /veh SOX15 (11748057_x_at) / RFU CD79A (11719716_a_at) / Fold change /veh CD79A (11719716_a_at) / RFU HIST1H1D (11736915_at) / Fold change /veh HIST1H1D (11736915_at) / RFU CASKIN2 (11723855_a_at) / Fold change /veh CASKIN2 (11723855_a_at) / RFU LOC730098 (11760151_x_at) / Fold change /veh LOC730098 (11760151_x_at) / RFU OR4N2 (11742367_at) / Fold change /veh OR4N2 (11742367_at) / RFU PRRT2 (11749266_a_at) / Fold change /veh PRRT2 (11749266_a_at) / RFU SNX32 (11753110_a_at) / Fold change /veh SNX32 (11753110_a_at) / RFU CDHR5 (11726645_a_at) / Fold change /veh CDHR5 (11726645_a_at) / RFU RCAN1 (11760418_a_at) / Fold change /veh RCAN1 (11760418_a_at) / RFU FAM167A (11723789_a_at) / Fold change /veh FAM167A (11723789_a_at) / RFU FAM26E (11764081_at) / Fold change /veh FAM26E (11764081_at) / RFU ISYNA1 (11749810_s_at) / Fold change /veh ISYNA1 (11749810_s_at) / RFU ACY1 (11761880_at) / Fold change /veh ACY1 (11761880_at) / RFU 11764098_at / Fold change /veh 11764098_at / RFU SAMD14 (11745864_x_at) / Fold change /veh SAMD14 (11745864_x_at) / RFU NPB (11741838_a_at) / Fold change /veh NPB (11741838_a_at) / RFU TMPRSS6 (11731388_a_at) / Fold change /veh TMPRSS6 (11731388_a_at) / RFU KRTAP10-2 (11738614_at) / Fold change /veh KRTAP10-2 (11738614_at) / RFU ARHGAP8 /// PRR5-ARHGAP8 (11727945_x_at) / Fold change /veh ARHGAP8 /// PRR5-ARHGAP8 (11727945_x_at) / RFU KRTAP5-7 /// NADSYN1 (11734609_at) / Fold change /veh KRTAP5-7 /// NADSYN1 (11734609_at) / RFU RASL12 (11751679_a_at) / Fold change /veh RASL12 (11751679_a_at) / RFU CDKN2B (11736163_a_at) / Fold change /veh CDKN2B (11736163_a_at) / RFU PRF1 (11729649_at) / Fold change /veh PRF1 (11729649_at) / RFU, ZNF638 /// ZNF638-IT1 / Fold change vs veh, ZNF638 /// ZNF638-IT1 / RFU, PANK3 / Fold change vs veh, PANK3 / RFU, SH3YL1 / Fold change vs veh, SH3YL1 / RFU, ZEB2 / Fold change vs veh, ZEB2 / RFU, NRIP1 / Fold change vs veh, NRIP1 / RFU, PTTG1IP / Fold change vs veh, PTTG1IP / RFU, CAPN2 / Fold change vs veh, CAPN2 / RFU, MED14 / Fold change vs veh, MED14 / RFU, SNORA58 / Fold change vs veh, SNORA58 / RFU, C1orf63 / Fold change vs veh, C1orf63 / RFU, LRRFIP1 / Fold change vs veh, LRRFIP1 / RFU, NDUFAF7 / Fold change vs veh, NDUFAF7 / RFU, SLC12A2 / Fold change vs veh, SLC12A2 / RFU, IBTK / Fold change vs veh, IBTK / RFU, ESF1 / Fold change vs veh, ESF1 / Fold change vs veh, TMEM50B / RFU, TAOK1 / Fold change vs veh, TAOK1 / RFU, ACBD3 / Fold change vs veh, ACBD3 / RFU, TMA16 / Fold change vs veh, TMA16 / RFU, RWDD3 / Fold change vs veh, RWDD3 / RFU, BCAT1 / Fold change vs veh, BCAT1 / RFU, EDEM3 / Fold change vs veh, EDEM3 / RFU, TMEM33 / Fold change vs veh, TMEM33 / RFU, WDR75 / Fold change vs veh, WDR75 / RFU, AHCTF1 / Fold change vs veh, AHCTF1 / RFU, TFRC / Fold change vs veh, TFRC / RFU, ZDHHC17 / Fold change vs veh, ZDHHC17 / RFU, NOM1 / Fold change vs veh, NOM1 / RFU, ARL8B / Fold change vs veh, ARL8B / RFU, ZBTB11 / Fold change vs veh, ZBTB11 / RFU, TAMM41 / Fold change vs veh, TAMM41 / RFU, KIAA1704 /// LOC100996395 / Fold change vs veh, KIAA1704 /// LOC100996395 / RFU, ING1 / Fold change vs veh, ING1 / RFU, TRMT61B / Fold change vs veh, TRMT61B / RFU, FUBP3 / Fold change vs veh, FUBP3 / RFU, TP53 / Fold change vs veh, TP53 / RFU, TNKS2 / Fold change vs veh, TNKS2 / RFU, ZFP14 / Fold change vs veh, ZFP14 / RFU, ACTR2 / Fold change vs veh, ACTR2 / RFU, PPP3R1 / Fold change vs veh, PPP3R1 / RFU, PIK3R1 / Fold change vs veh, PIK3R1 / RFU, HNRNPA1 / Fold change vs veh, HNRNPA1 / RFU, RNF170 / Fold change vs veh, RNF170 / RFU, ZNF28 / Fold change vs veh, ZNF28 / RFU, RNGTT / Fold change vs veh, RNGTT / RFU, OGT / Fold change vs veh, OGT / RFU, BRD1 / Fold change vs veh, BRD1 / RFU, MARS / Fold change vs veh, MARS / RFU, ZNF655 / Fold change vs veh, ZNF655 / RFU, FAHD1 / Fold change vs veh, FAHD1 / RFU, BDP1 / Fold change vs veh, BDP1 / RFU, LRRCC1 / Fold change vs veh, LRRCC1 / RFU, ARID1A / Fold change vs veh, ARID1A / RFU, ZNF146 / Fold change vs veh, ZNF146 / RFU, ZNF330 / Fold change vs veh, ZNF330 / RFU, GPN3 / Fold change vs veh, GPN3 / RFU, C9orf123 / Fold change vs veh, C9orf123 / RFU, N4BP2L2 / Fold change vs veh, N4BP2L2 / RFU, ARFIP1 / Fold change vs veh, ARFIP1 / RFU, FAM179B / Fold change vs veh, FAM179B / RFU, BCL10 / Fold change vs veh, BCL10 / RFU, UHRF1BP1L / Fold change vs veh, UHRF1BP1L / RFU, BET1 / Fold change vs veh, BET1 / RFU, CNOT2 / Fold change vs veh, CNOT2 / RFU, ZNF268 / Fold change vs veh, ZNF268 / Fold change vs veh, ZNF507 / RFU, DGCR2 / Fold change vs veh, DGCR2 / RFU, WDSUB1 / Fold change vs veh, WDSUB1 / Fold change vs veh, HSP90B1 /// MIR3652 / RFU, ADSS / Fold change vs veh, ADSS / RFU, GK / Fold change vs veh, GK / RFU, ZNF148 / Fold change vs veh, ZNF148 / RFU, TAF9 / Fold change vs veh, TAF9 / RFU, SLC1A5 / Fold change vs veh, SLC1A5 / RFU, SLMO2 / Fold change vs veh, SLMO2 / RFU, ABCC4 / Fold change vs veh, ABCC4 / RFU, LOC101060439 /// RAP1B / Fold change vs veh, LOC101060439 /// RAP1B / RFU, RFX7 / Fold change vs veh, RFX7 / RFU, GTPBP10 / Fold change vs veh, GTPBP10 / RFU, CNEP1R1 / Fold change vs veh, CNEP1R1 / RFU, BIVM-ERCC5 /// ERCC5 / Fold change vs veh, BIVM-ERCC5 /// ERCC5 / RFU, ILF3 / Fold change vs veh, ILF3 / RFU 11762660_at / Fold change /veh 11762660_at / RFU VCAN (11757783_s_at) / Fold change /veh VCAN (11757783_s_at) / RFU DDX43 (11728927_at) / Fold change /veh DDX43 (11728927_at) / RFU KRT8 (11758188_x_at) / Fold change /veh KRT8 (11758188_x_at) / RFU NKD1 (11759106_at) / Fold change /veh NKD1 (11759106_at) / RFU SRD5A1 (11742802_a_at) / Fold change /veh SRD5A1 (11742802_a_at) / RFU TPSAB1 /// TPSB2 (11721975_s_at) / Fold change /veh TPSAB1 /// TPSB2 (11721975_s_at) / RFU GSTM3 (11746129_a_at) / Fold change /veh GSTM3 (11746129_a_at) / RFU IL23R (11737362_x_at) / Fold change /veh IL23R (11737362_x_at) / RFU TMEM51 (11727254_a_at) / Fold change /veh TMEM51 (11727254_a_at) / RFU PIWIL2 (11732686_x_at) / Fold change /veh PIWIL2 (11732686_x_at) / RFU ORM1 (11744905_x_at) / Fold change /veh ORM1 (11744905_x_at) / RFU CCDC152 (11743942_at) / Fold change /veh CCDC152 (11743942_at) / RFU ECM1 (11717891_a_at) / Fold change /veh ECM1 (11717891_a_at) / RFU IL23R (11748794_a_at) / Fold change /veh IL23R (11748794_a_at) / RFU TNFAIP8L3 (11732012_x_at) / Fold change /veh TNFAIP8L3 (11732012_x_at) / RFU MBOAT4 (11741988_at) / Fold change /veh MBOAT4 (11741988_at) / RFU 11764193_at / Fold change /veh 11764193_at / RFU TMEM53 (11763286_at) / Fold change /veh TMEM53 (11763286_at) / RFU MAGEB2 (11727129_at) / Fold change /veh MAGEB2 (11727129_at) / RFU TMEM200A (11744735_a_at) / Fold change /veh TMEM200A (11744735_a_at) / RFU CCDC152 (11751479_a_at) / Fold change /veh CCDC152 (11751479_a_at) / RFU FAM211A (11726209_a_at) / Fold change /veh FAM211A (11726209_a_at) / RFU RGS16 (11746705_a_at) / Fold change /veh RGS16 (11746705_a_at) / RFU VCAN (11755009_s_at) / Fold change /veh VCAN (11755009_s_at) / RFU RHOB (11743442_s_at) / Fold change /veh RHOB (11743442_s_at) / RFU RGS16 (11720943_a_at) / Fold change /veh RGS16 (11720943_a_at) / RFU RGS16 (11720944_at) / Fold change /veh RGS16 (11720944_at) / RFU, VPS4B / Fold change vs veh, VPS4B / RFU, CREB1 / Fold change vs veh, CREB1 / RFU, DNAJC13 / Fold change vs veh, DNAJC13 / RFU, GNAQ / Fold change vs veh, GNAQ / RFU, CDK5R1 / Fold change vs veh, CDK5R1 / RFU, ZRANB3 / Fold change vs veh, ZRANB3 / RFU, CUL4A / Fold change vs veh, CUL4A / RFU, CCNY / Fold change vs veh, CCNY / RFU, UFL1 / Fold change vs veh, UFL1 / RFU, COG3 / Fold change vs veh, COG3 / RFU, DIAPH2 / Fold change vs veh, DIAPH2 / RFU, SKA2 / Fold change vs veh, SKA2 / RFU, AFF3 / Fold change vs veh, AFF3 / RFU, LMF1 / Fold change vs veh, LMF1 / RFU, IPO11 / Fold change vs veh, IPO11 / RFU, DFFB / Fold change vs veh, DFFB / RFU, FOXP1 / Fold change vs veh, FOXP1 / RFU, CARD8 / Fold change vs veh, CARD8 / RFU, STRN3 / Fold change vs veh, STRN3 / RFU, ADK / Fold change vs veh, ADK / RFU, RASSF2 / Fold change vs veh, RASSF2 / RFU, WIPF1 / Fold change vs veh, WIPF1 / RFU, LARP1B / Fold change vs veh, LARP1B / RFU, RASA1 / Fold change vs veh, RASA1 / RFU, RB1 / Fold change vs veh, RB1 / RFU, PPFIA1 / Fold change vs veh, PPFIA1 / RFU, MAT2A / Fold change vs veh, MAT2A / RFU, CCT5 / Fold change vs veh, CCT5 / RFU, WDR92 / Fold change vs veh, WDR92 / RFU, CUX1 / Fold change vs veh, CUX1 / RFU, TTC7A / Fold change vs veh, TTC7A / RFU, TMEM135 / Fold change vs veh, TMEM135 / RFU, DEPTOR / Fold change vs veh, DEPTOR / RFU, CPM / Fold change vs veh, CPM / RFU, DNAJB6 / Fold change vs veh, DNAJB6 / RFU, CACNA2D3 / Fold change vs veh, CACNA2D3 / RFU, DTX4 / Fold change vs veh, DTX4 / RFU, TFCP2 / Fold change vs veh, TFCP2 / RFU, GMCL1 /// GMCL1P1 / Fold change vs veh, GMCL1 /// GMCL1P1 / RFU, AEBP2 / Fold change vs veh, AEBP2 / RFU, SNHG1 /// SNORD22 /// SNORD25 /// SNORD26 /// SNORD27 /// SNORD28 /// SNORD29 /// SNORD31 / Fold change vs veh, SNHG1 /// SNORD22 /// SNORD25 /// SNORD26 /// SNORD27 /// SNORD28 /// SNORD29 /// SNORD31 / Fold change (Aza/veh), C12orf56 (ProbeSet 11735607_a_at) / Fold change (ACY-1035/veh), C12orf56 (ProbeSet 11735607_a_at) / Fold change (Aza/veh), FGFR1OP (ProbeSet 11751329_s_at) / Fold change (ACY-1035/veh), FGFR1OP (ProbeSet 11751329_s_at) / Fold change (Aza/veh), VPS36 (ProbeSet 11739960_a_at) / Fold change (ACY-1035/veh), VPS36 (ProbeSet 11739960_a_at) / RFU SYPL1 (11715823_x_at) / Fold change /veh SYPL1 (11715823_x_at) / RFU IGFBP7 (11715501_s_at) / Fold change /veh IGFBP7 (11715501_s_at) / RFU REEP3 (11722064_at) / Fold change /veh REEP3 (11722064_at) / RFU IGLL1 (11728026_x_at) / Fold change /veh IGLL1 (11728026_x_at): dose or concentration left out as unconfirmed
# Settings: ProbeSet 11720270_a_at; LIST B
smiles,measurement,value
Nc1ncn([C@@H]2O[C@H](CO)[C@@H](O)[C@H]2O)c(=O)n1 [azacitidine],"Fold change vs veh, IBTK",0.96

# Reference: PMC5218480 (PLoS ONE, 2017)
